The experiment deals with TH positive cells in the substantia nigra. The experiment is described as follows: Protection of the substantia nigra after transient global ischaemia in gerbils (TH positive cell count). It is filed as in vivo, Mongolian gerbils. The following applies: 2 mg/kg i.p. 2 minutes after end of occlusion. How it is done:
Protection of the Substantia Nigra after Transient Global Ischaemia in Gerbils
In this experiment, the neuroprotective effect of a test compound is assessed in an animal model of transient global ischaemia.
Method: In halothane anaesthetised gerbils, right and left carotid arteries are located and occluded for 10 minutes. Animals are kept at normal body temperature before and after the operation using heating lamps. During surgery, the gerbils are placed on heating pads, the body temperature is controlled and maintained at 37±0.5° C. The test compound is dosed at specified time points after the ischaemic insult, either i.v., i.p., s.c. or p.o.
Fourteen days later, the animals are sacrificed, brains removed and cooled to −70° C. Thereafter, the brains are sectioned in 20 μm thick sections through the substantia nigra region. Sections are stained for tyroxine hydroxylase (TH+) expression using immunohistochemistry. The number of TH+ cells in the sections is counted and the total number of TH+ cells in the substantia nigra is calculated by means of stereology. […]
After 14 days, the animals were sacrificed and the brains sectioned. […] The total number of TH positive cells after ischemia or in control animals were determined by means of stereological cell counting.

On to `CON=C[C@@H]1[C@@H](c2ccc(Cl)c(Cl)c2)CC2CC[C@H]1N2C` [test compound, (1R,2R,3S)-3-(3,4-dichlorophenyl)-tropane-2-O-methyl-aldoxime], for which the “Mean number of cells (total number of TH positive cells in the substantia nigra)” value (10 min bilateral carotid artery occlusion, counted after 14 days by stereology, control 9531, ischemia 7510) is given as 10615 cells. Further, the “number of surviving TH positive cells in the substantia nigra after ischemia, compared with untreated ischemia” value (10 min carotid artery occlusion, 14 days) is recorded as “apparently increased”.

These data come from US7381733B2, “Tropane derivatives having dopamine reuptake inhibitor activity for the treatment of ischemic diseases” (Neurosearch A/S, priority 2001, dated 2008).
